Measurements taken from publication PMC8863579, “Effects of pharmacological inhibition of the sodium‐dependent phosphate cotransporter 2b (NPT2b) on intestinal phosphate absorption in mouse and rat models” (Pharmacology Research & Perspectives, 2022).

What was measured:
Human PiT2 = target: T1, Human PiT2 (Homo sapiens, UniProt Q08357); experiment: 33P-phosphate uptake in CHO cells over-expressing human PiT2; assay type: cell-based
T1 construct: Full Length cDNA Cloning and Generation of Cell Lines Over-Expressing Human NPT2a, NPT2c, Pit1, and Pit2; host or cells: CHO-K1, pcDNA3.1(+), constitutive
T1 sequence (Q08357 1-652): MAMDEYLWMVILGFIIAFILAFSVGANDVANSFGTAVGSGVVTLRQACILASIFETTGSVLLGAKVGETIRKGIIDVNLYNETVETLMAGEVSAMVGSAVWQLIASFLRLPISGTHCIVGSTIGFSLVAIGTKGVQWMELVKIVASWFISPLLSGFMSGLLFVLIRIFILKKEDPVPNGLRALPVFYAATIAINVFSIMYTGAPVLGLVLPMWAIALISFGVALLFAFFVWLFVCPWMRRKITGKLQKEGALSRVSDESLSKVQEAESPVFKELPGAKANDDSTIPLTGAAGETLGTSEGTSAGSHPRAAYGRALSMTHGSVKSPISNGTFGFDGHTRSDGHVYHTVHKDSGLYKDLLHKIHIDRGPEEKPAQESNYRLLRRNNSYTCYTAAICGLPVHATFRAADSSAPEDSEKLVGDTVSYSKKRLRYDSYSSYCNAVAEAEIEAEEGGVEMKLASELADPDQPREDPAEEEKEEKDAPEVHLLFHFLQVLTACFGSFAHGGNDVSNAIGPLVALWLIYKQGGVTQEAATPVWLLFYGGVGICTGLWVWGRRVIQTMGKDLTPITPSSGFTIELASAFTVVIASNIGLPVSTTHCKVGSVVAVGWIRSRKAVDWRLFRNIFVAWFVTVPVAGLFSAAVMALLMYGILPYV
Description: T‐Rex™ Chinese Hamster Ovary cells (CHO; Thermo Fisher Scientific) stably expressing human, mouse, or rat NPT2b under a tetracycline‐inducible promoter were generated using standard cDNA transfection and clone selection procedures (see Supporting Information). Cells were plated in 96‐well CytoStar‐T® scintillating microplates and were incubated overnight in growth media plus 100 ng/ml of tetracycline to induce expression of NPT2b. The next day, cells were washed 3 times with 200 µl assay buffer (137 mM NaCl, 5.4 mM KCl, 2.8 mM CaCl2, 1.2 mM MgSO4, and 14 mM Tris‐HCl buffer, pH 7.5). LY3358966 serially diluted 1‐to‐3 in DMSO was added to cells with assay buffer. An equal volume of H3 ^33PO4 (PerkinElmer) in assay buffer supplemented with 5 µM potassium phosphate was then added to initiate radiolabeled phosphate (^33P‐phosphate) uptake. […] The plate was immediately read on a Wallac MicroBeta Trilux liquid scintillation counter. Percent inhibition at all concentrations tested was calculated, and IC50 values were then determined using a 4‐parameter logistic curve fitting equation.
Similar methods were used to measure the effects of LY3358966 on other transporters of interest, except that constitutive promoters were used to generate CHO cells over‐expressing human PiT1 and PiT2. The ^33P‐phosphate uptake was measured after 45 min at 20°C for the NPT2a, NPT2c, PiT1, and PiT2 assays. […]

human NPT2b = target: T2, human NPT2b (Homo sapiens, UniProt O95436); experiment: 33P-phosphate uptake in CHO cells expressing human NPT2b; assay type: cell-based; settings: geometric mean; 2.5 µM phosphate, 60 min, room temperature
T2 construct: Full-Length cDNA Cloning and Generation of Cell Lines Over-Expressing Human, Mouse, and Rat NPT2b; host or cells: CHO-K1 / T-REx CHO, pcDNA5/TO, tetracycline-induced
T2 sequence (O95436 1-690): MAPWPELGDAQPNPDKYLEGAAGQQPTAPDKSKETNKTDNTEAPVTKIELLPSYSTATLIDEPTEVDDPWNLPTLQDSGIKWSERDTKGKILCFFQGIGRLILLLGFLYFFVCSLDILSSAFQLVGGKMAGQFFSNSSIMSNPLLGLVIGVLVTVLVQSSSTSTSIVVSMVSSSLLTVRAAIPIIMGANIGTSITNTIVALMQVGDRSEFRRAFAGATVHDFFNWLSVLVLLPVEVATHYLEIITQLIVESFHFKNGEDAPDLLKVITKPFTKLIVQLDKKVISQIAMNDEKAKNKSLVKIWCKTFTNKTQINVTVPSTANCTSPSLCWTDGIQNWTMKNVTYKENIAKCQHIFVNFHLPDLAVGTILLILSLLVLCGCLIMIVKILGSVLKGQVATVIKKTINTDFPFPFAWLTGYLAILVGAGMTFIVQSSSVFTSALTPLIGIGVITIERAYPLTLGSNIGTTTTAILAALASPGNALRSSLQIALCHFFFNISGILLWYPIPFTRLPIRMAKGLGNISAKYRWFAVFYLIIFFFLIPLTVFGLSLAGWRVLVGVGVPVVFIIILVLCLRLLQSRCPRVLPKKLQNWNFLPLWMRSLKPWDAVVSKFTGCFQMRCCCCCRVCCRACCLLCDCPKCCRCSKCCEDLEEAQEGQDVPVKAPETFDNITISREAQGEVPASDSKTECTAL
Description: T‐Rex™ Chinese Hamster Ovary cells (CHO; Thermo Fisher Scientific) stably expressing human, mouse, or rat NPT2b under a tetracycline‐inducible promoter were generated using standard cDNA transfection and clone selection procedures (see Supporting Information). Cells were plated in 96‐well CytoStar‐T® scintillating microplates and were incubated overnight in growth media plus 100 ng/ml of tetracycline to induce expression of NPT2b. The next day, cells were washed 3 times with 200 µl assay buffer (137 mM NaCl, 5.4 mM KCl, 2.8 mM CaCl2, 1.2 mM MgSO4, and 14 mM Tris‐HCl buffer, pH 7.5). LY3358966 serially diluted 1‐to‐3 in DMSO was added to cells with assay buffer. An equal volume of H3 ^33PO4 (PerkinElmer) in assay buffer supplemented with 5 µM potassium phosphate was then added to initiate radiolabeled phosphate (^33P‐phosphate) uptake. The final phosphate concentration was 2.5 µM and the final DMSO concentration was 1%. Following a 60‐min incubation at room temperature, an equal volume of assay buffer containing 400 µM phloretin was added to stop ^33P‐phosphate uptake. The plate was immediately read on a Wallac MicroBeta Trilux liquid scintillation counter. Percent inhibition at all concentrations tested was calculated, and IC50 values were then determined using a 4‐parameter logistic curve fitting equation.
The vendors for target cDNA are listed in supplemental Table 1. […]

IC50 (Human PiT2; 45 min at 20°C): > 100000 nM
Selectivity (Human PiT2; ratio of IC50 of human PiT2 assay to that of human NPT2b assay): >3086
IC50 (human NPT2b): 32.4 nM
SMILES: CC1(C)CN(C(=O)NCCCCO)CCN1Cc1cccc(C(=O)Nc2sc3c(c2C(=O)Nc2cc(F)c(CCc4ccc(C(=O)O)cc4)c(F)c2)CCCC3)c1 [LY3358966, 4‐[2‐[2,6‐difluoro‐4‐[[2‐[[3‐[[4‐(4‐hydroxybutylcarbamoyl)‐2,2‐dimethyl‐piperazin‐1‐yl]methyl]benzoyl]amino]‐4,5,6,7‐tetrahydrobenzothiophene‐3‐carbonyl]amino]phenyl]ethyl]benzoic acid]
